# Read-outs that look alike come from different tables or passages of the source. Numbered stars: 1 amine (or outer) side, 2 acyl side, 3 side chain; on linkers, the order of the positions; unused ones are H or OH. Square brackets hold non-standard residues; d marks the D form. Peptide text beside a SMILES is read from it. * marks the point of attachment. 5TAMRA = CN(C)c1ccc2c(c1)Oc1cc(N(C)C)ccc1C21OC(=O)c2cc(C(=O)*)ccc21; DFO = CC(=O)N(O)CCCCCNC(=O)CCC(=O)N(O)CCCCCNC(=O)CCC(=O)N(O)CCCCCN*; Cha = N[C@@H](CC1CCCCC1)C(=O)O; Suc = O=C(CCC(=O)[*:2])[*:1]
# Legend:
# [1] = tested on: A2780 cells
# Procedure: (§1) A2780 (human ovarian cancer) cell line was obtained from Fox Chase Cancer Center (USA) and cultured in RPMI-1640 medium supplemented with 10% FBS and 1% penicillin/streptomycin. Cells were incubated at 37°C in a humidified incubator with a 5% CO2.
# (§2) A2780 cells were plated in 96-well flat-bottom tissue culture plates (Starstedt) at 25,000 cells per well. The culture medium was removed, and cells were washed. Cellular viability was analyzed after an overnight incubation at 37°C with 5% CO2 using the CCK-8 viability dye (Dojindo, Rockville, Maryland) at an absorbance of 450 nm. From the resulting dose-response curves, 50% growth inhibitory concentration (IC50) values were determined by interpolation [22].
# [2] = tested on: A2780 cells; assay: cells; conditions: Homo sapiens, A2780, 24 h
# Procedure: as §1, §2
# [3] = Antioxidant activity (iron-catalysed oxidation of DHR by ascorbate); assay type: biochemical; conditions: 20 μM chelator, 40 μM ascorbic acid, 50 μM DHR in HBS; Fe(NTA) or serum of iron-overloaded patients; 37°C, slopes 15−40 min
# Procedure: The standard ferric nitrilotriacetate (Fe(NTA)) complex (1:3 Fe:NTA molar ratio) was prepared by adding FAS to a stock solution of aqueous NTA, and allowed to react for 1 h at 37°C under air so that iron is oxidized to Fe(III) (evidenced by the change of color to deep yellow). Then, 180 μL of a mixture of 40 μM ascorbic acid, 50 μM DHR, and 20 μM chelators (DFO, DFO-Tat, DFO-1A, DFO-SS02 e DFO-SS20) in HBS was placed in a 96-well microplate and treated with 20 μL of either Fe(NTA) at different concentrations or sera from iron overloaded patients. Assays were performed in duplicate. Sera samples were furnished by Dr. Nelson Hamerschlak, Albert Einstein Hospital, São Paulo. Fluorescence was measured in a BMG FluoStar Optima instrument for 60 min at 37°C (λexc/λem = 485/520 nm). The slopes (indicating rate of oxidation, presented in fluorescence units per minute) of the oxidation curves were calculated in the time range 15−40 min and were plotted against iron concentration.
# [4] = tested on: mitochondria of A2780 cells; assay: Mitochondrial localization (colocalization with MitoTracker Deep Red); assay type: cell-based, human; conditions: TAMRA-labeled mtDFO 1–10 μM, 1 h, MitoTracker Deep Red 30 min, epifluorescence microscopy, ImageJ
# Procedure: A2780 cells were seeded in an imaging dish in 2 mL of growth medium at 60% confluence. The growth medium was swapped with premixed medium containing 1–10 μM of TAMRA-mtDFO, and the cells were allowed to incubate with the dye for 1 h. MitoTracker Deep Red was added to the cells at 1.0–4.0 μM concentrations and allowed to incubate for 30 min. At the end of the incubation period, the medium was aspirated, and the cells were washed with 3 × 1 mL PBS and incubated with 2 mL of dye-free DMEM. The imaging experiments were performed using a Zeiss Axiovert 200M inverted epifluorescence microscope equipped with an EM-CCD digital camera (Hamamatsu) and a MS200 XY Piezo Z stage (Applied Scientific Instruments). The light source was an X-Cite 120 metal-halide lamp (EXFO), and the fluorescence images were obtained with an oil-immersion objective at 63× magnification. The microscope was operated by the Volocity software program of Perkin-Elmer. Colocalization of the dyes was quantitated using the program ImageJ using a previously described protocols.
# [5] = A2780 cells, 24 h (overnight incubation at 37°C, 5% CO2), CCK-8 viability dye, absorbance 450 nm, interpolation of dose-response curves, average ± s.d. of at least three independent experiments
molecule,measurement,setting,value
CC(=O)N(O)CCCCCNC(=O)CCC(=O)N(O)CCCCCNC(=O)CCC(=O)N(O)CCCCCNC(=O)CCC(=O)N[C@@H](Cc1c(C)cc(O)cc1C)C(=O)N[C@H](CCCNC(=N)N)C(=O)N[C@@H](Cc1ccccc1)C(=O)N[C@@H](CCCCN)C(N)=O [DFO-SS02],IC50,[1]; [5],42.9 ± 1.06 µM
"CC(=O)N(O)CCCCCNC(=O)CCC(=O)N(O)CCCCCNC(=O)CCC(=O)N(O)CCCCCN [DFO, Desferrioxamine]",IC50,[2],1450 ± 130 µM
same,Suppression of iron-catalysed oxidation of the DHR probe,[3],efficiently suppressed
CC(=O)N(O)CCCCCNC(=O)CCC(=O)N(O)CCCCCNC(=O)CCC(=O)N(O)CCCCCNC(=O)CCC(=O)N[C@@H](CC1CCCCC1)C(=O)N[C@H](CCCNC(=N)N)C(=O)N[C@@H](CC1CCCCC1)C(=O)N[C@@H](CCCCN)C(=O)N[C@@H](CC1CCCCC1)C(=O)N[C@H](CCCNC(=N)N)C(=O)N[C@@H](CC1CCCCC1)C(=O)N[C@@H](CCCCN)C(N)=O [DFO-1A] ({DFO-Suc}-[Cha][dR][Cha]K[Cha][dR][Cha]K-NH2),IC50,[1]; 24 h,108 ± 2.51 µM
CC(=O)N(O)CCCCCNC(=O)CCC(=O)N(O)CCCCCNC(=O)CCC(=O)N(O)CCCCCNC(=O)CCC(=O)N[C@@H](CCCNC(=N)N)C(=O)N[C@@H](CCCCN)C(=O)N[C@@H](CCCCN)C(=O)N[C@@H](CCCNC(=N)N)C(=O)N[C@@H](CCCNC(=N)N)C(=O)N[C@@H](CCC(N)=O)C(=O)N[C@@H](CCCNC(=N)N)C(=O)N[C@@H](CCCNC(=N)N)C(=O)N[C@@H](CCCNC(=N)N)C(=O)O [DFO-TAT],IC50,[1]; [5],111 ± 1.17 µM
CC(=O)N(O)CCCCCNC(=O)CCC(=O)N(O)CCCCCNC(=O)CCC(=O)N(O)CCCCCNC(=O)CCC(=O)N[C@@H](Cc1ccccc1)C(=O)N[C@H](CCCNC(=N)N)C(=O)N[C@@H](Cc1ccccc1)C(=O)N[C@@H](CCCCN)C(=O)N[C@@H](CCCCNC(=O)c1ccc2c(c1)C(=O)OC21c2ccc(N(C)C)cc2Oc2cc(N(C)C)ccc21)C(N)=O [DFO-SS20-TAMRA] ({DFO-Suc}-F[dR]FKK(5TAMRA)-NH2),IC50,[1]; 24 h,7.91 ± 1.19 µM
carboxy-tetramethylrhodamine [TAMRA],Rr = Pearson correlation coefficient (colocalization with MitoTracker),[4],does not locate by itself in the mitochondria
CC(=O)N(O)CCCCCNC(=O)CCC(=O)N(O)CCCCCNC(=O)CCC(=O)N(O)CCCCCNC(=O)CCC(=O)N[C@@H](CC1CCCCC1)C(=O)N[C@H](CCCNC(=N)N)C(=O)N[C@@H](CC1CCCCC1)C(=O)N[C@@H](CCCCN)C(=O)N[C@@H](CC1CCCCC1)C(=O)N[C@H](CCCNC(=N)N)C(=O)N[C@@H](CC1CCCCC1)C(=O)N[C@@H](CCCCN)C(=O)N[C@@H](CCCCNC(=O)c1ccc2c(c1)C(=O)OC21c2ccc(N(C)C)cc2Oc2cc(N(C)C)ccc21)C(N)=O [DFO-1A-TAMRA] ({DFO-Suc}-[Cha][dR][Cha]K[Cha][dR][Cha]KK(5TAMRA)-NH2),IC50,[1]; 24 h,2.97 ± 1.06 µM
CC(=O)N(O)CCCCCNC(=O)CCC(=O)N(O)CCCCCNC(=O)CCC(=O)N(O)CCCCCNC(=O)CCC(=O)N[C@@H](Cc1ccccc1)C(=O)N[C@H](CCCNC(=N)N)C(=O)N[C@@H](Cc1ccccc1)C(=O)N[C@@H](CCCCN)C(N)=O [DFO-SS20] ({DFO-Suc}-F[dR]FK-NH2),IC50,[1]; 24 h,62.4 ± 1.13 µM

# Source: PMC5298241, “Mitochondria-penetrating peptides conjugated to desferrioxamine as chelators for mitochondrial labile iron” (PLoS ONE, 2017)
